These results are taken from patent US11078216B2, “Bisaryl amides as NRF2 activators” (GLAXOSMITHKLINE INTELLECTUAL PROPERTY DEVELOPMENT LIMITED, priority 2016, dated 2021).

What is called EC50 is the concentration that produces a half-maximal response.

Experiment [1] concerns NRF2 (NQO1 activity as marker for NRF2 activation), BEAS-2B cells. The experiment is described as follows: BEAS-2B NQO1 MTT Assay. It is filed as cell-based. As to conditions: EC50 of NQO1 specific activity induction, 48 hours incubation, read-out: EC50. Summed up:
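BEAS-2B cells were exposed to compound for 48 h at 37° C, 5% CO2, then lysed. NQO1 activity was measured kinetically by MTT reduction at 570 nm over 30 minutes; EC50 came from 3-parameter fit of Delta OD/min versus log concentration.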

The subject of experiment [2] is rats. As to conditions: rats on a choline-deficient L-amino acid-defined diet; cited from earlier work.
For experiment [3], the system named is COPD macrophages and alveolar macrophages from cigarette smoke-exposed mice. The note with it: cited from earlier work.
Experiment [4] deals with rats. As to conditions: cerebral ischemia-reperfusion model; cited from earlier work.
Another experiment relates to mice. The note with it: NRF2 wild-type vs KO mice after administration; cited from earlier work.

Where two headings read alike, the source gives them in different places.

`CC[C@@H]1CN(Cc2cc([C@@H](c3ccc4c(nnn4CC)c3C)C(C)(C)C(=O)NC(C)(C)C(=O)O)ccc2C)S(=O)(=O)c2ccccc2O1` [Example 207, 2-((S)-3-(3-(((R)-4-ethyl-1,1-dioxido-3,4-dihydro-2H-benzo[b][1,4,5]oxathiazepin-2-yl)methyl)-4-methylphenyl)-3-(1-ethyl-4-methyl-1H-benzo[d][1,2,3]triazol-5-yl)-2,2-dimethylpropanamido)-2-methylpropanoic acid]: the concentration giving a half-maximal response (EC50) in experiment [1] (Homo sapiens) is 100 to 1000 nM. With `CC[C@@H]1CN(Cc2cc([C@@H](c3ccc4c(nnn4CC)c3C)C(C)(C)C(=O)NCC(N)=O)ccc2C)S(=O)(=O)c2ccccc2O1` [Example 208, (S)-N-(2-amino-2-oxoethyl)-3-(3-(((R)-4-ethyl-1,1-dioxido-3,4-dihydro-2H-benzo[b][1,4,5]oxathiazepin-2-yl)methyl)-4-methylphenyl)-3-(1-ethyl-4-methyl-1H-benzo[d][1,2,3]triazol-5-yl)-2,2-dimethylpropanamide], the half-maximal effective concentration (EC50) in experiment [1] (Homo sapiens) lay in the range of 10 to 100 nM.

Consider `CC[C@@H]1CN(Cc2cc([C@@H](c3ccc4c(nnn4CC)c3C)C(C)(C)C(=O)N[C@@H](CCC(=O)O)C(=O)O)ccc2C)S(=O)(=O)c2ccccc2O1` [Example 209, (S)-2-((S)-3-(3-(((R)-4-ethyl-1,1-dioxido-3,4-dihydro-2H-benzo[b][1,4,5]oxathiazepin-2-yl)methyl)-4-methylphenyl)-3-(1-ethyl-4-methyl-1H-benzo[d][1,2,3]triazol-5-yl)-2,2-dimethylpropanamido)pentanedioic acid], for which the EC50 in experiment [1] (Homo sapiens) lay in the range of 1000 to 10000 nM.

On to `CC[C@@H]1CN(Cc2cc([C@@H](c3ccc4c(nnn4CC)c3C)C(C)(C)C(=O)N[C@H](CCC(=O)O)C(=O)O)ccc2C)S(=O)(=O)c2ccccc2O1` [Example 210, (R)-2-((S)-3-(3-(((R)-4-ethyl-1,1-dioxido-3,4-dihydro-2H-benzo[b][1,4,5]oxathiazepin-2-yl)methyl)-4-methylphenyl)-3-(1-ethyl-4-methyl-1H-benzo[d][1,2,3]triazol-5-yl)-2,2-dimethylpropanamido)pentanedioic acid], for which the EC50 in experiment [1] (Homo sapiens) fell in the range of 100 to 1000 nM. For `CC[C@@H]1CN(Cc2cc([C@@H](c3ccc4c(nnn4CC)c3C)C(C)(C)C(=O)N[C@@H](CC(N)=O)C(=O)O)ccc2C)S(=O)(=O)c2ccccc2O1` [Example 211, (S)-4-amino-2-((S)-3-(3-(((R)-4-ethyl-1,1-dioxido-3,4-dihydro-2H-benzo[b][1,4,5]oxathiazepin-2-yl)methyl)-4-methylphenyl)-3-(1-ethyl-4-methyl-1H-benzo[d][1,2,3]triazol-5-yl)-2,2-dimethylpropanamido)-4-oxobutanoic acid], the EC50 in experiment [1] (Homo sapiens) lay in the range of 1000 to 10000 nM. On the same count and under the same terms, as for `CC[C@@H]1CN(Cc2cc([C@@H](c3ccc4c(nnn4CC)c3C)C(C)(C)C(=O)N[C@H](CC(N)=O)C(=O)O)ccc2C)S(=O)(=O)c2ccccc2O1` [Example 212, (R)-4-amino-2-((S)-3-(3-(((R)-4-ethyl-1,1-dioxido-3,4-dihydro-2H-benzo[b][1,4,5]oxathiazepin-2-yl)methyl)-4-methylphenyl)-3-(1-ethyl-4-methyl-1H-benzo[d][1,2,3]triazol-5-yl)-2,2-dimethylpropanamido)-4-oxobutanoic acid], the figure is 100 to 1000 nM.

As for `CC[C@@H]1CN(Cc2cc([C@@H](c3ccc4c(nnn4CC)c3C)C(C)(C)C(=O)N(CCC(=O)O)CC(=O)O)ccc2C)S(=O)(=O)c2ccccc2O1` [Example 213, 3-((S)-N-(carboxymethyl)-3-(3-(((R)-4-ethyl-1,1-dioxido-3,4-dihydro-2H-benzo[b][1,4,5]oxathiazepin-2-yl)methyl)-4-methylphenyl)-3-(1-ethyl-4-methyl-1H-benzo[d][1,2,3]triazol-5-yl)-2,2-dimethylpropanamido)propanoic acid], the EC50 in experiment [1] (Homo sapiens) lay within 10 to 100 nM.

On to `O=C(NCc1ccccn1)Nc1nnc(-c2ccco2)o1` [NK-252], for which the “progression of histologic abnormalities, especially hepatic fibrosis” value in the experiment on rats [2] was “significantly attenuated”.

For `C[S+]([O-])CCCCN=C=S` (centres unmarked) [Sulforaphane], the “expression of Macrophage Receptor with Collagenous structure (MARCO)” value in experiment [3] (COPD macrophages and alveolar macrophages from cigarette smoke-exposed mice) is “increases”. Further, in experiment [3] (Pseudomonas aeruginosa, non-typable Haemophilus influenzae, ex vivo and in vivo), the “bacterial phagocytosis and bacterial clearance” value is given as “improving”. For `Cc1c(-c2cnccn2)ssc1=S` [oltipraz], the “progression of histologic abnormalities, especially hepatic fibrosis” value in the experiment with rats [2] is listed as “significantly attenuated”. Regarding `CC(C)(C)c1cc(O)ccc1O` [tBHQ, tert-butylhydroquinone], the cortical damage entry with rats [4] is recorded as “reduced cortical damage”. Moreover, the cortical glutathione levels result in the experiment with mice was “increased in NRF2 wild-type but not KO mice”. Regarding “(S)-3-(1,4-Dimethyl-1H-benzo[d][1,2,3]triazol-5-yl)-3-(3-(((R)-2-ethyl-2,3-dihydropyrido[3,44][1,4]oxazepin-4(5H)-yl)methyl)-4-methylphenyl)-2,2-dimethyl-N-(pyridin-3-yl)propanamide [Example 111]”, the EC50 in experiment [1] lay in the range of 100 to 1000 nM.
